Test results as given in patent US12685777B2, “Compositions, systems, and methods for modulating a target gene” (The Board of Trustees of the Leland Stanford Junior …, priority 2022, dated 2026).
“Also recorded” adds a separate entry of the source. Where two headings read alike, the source gives them in different places.

How the values were obtained:
[1] = test system: human prostatic cancer cell lines; experiment: Viable cell counts of androgen-dependent prostate cancer cell lines after 72 hours; format: cell-based; settings: 72 hours of exposure, read-out: IC50 of killing of prostate cancer cell lines
Method: The AR-BCL6 TCIPs synthesized in I above were tested for their ability to kill prostate cancer cell lines as an indication of their ability to treat human prostatic cancer. AR-TCIPs rapidly and robustly kill human prostatic cancer cell lines. Four different cell lines were used that are androgen-dependent. The drugs were added at the indicated concentrations and viable cell counts determined after 72 hours of exposure. […] The EC50 is shown in each case.

[2] = biological target: T1, AR and BCL6 (Homo sapiens, UniProt P10275+P41182); experiment: AR-BCL6 nanoBRET assay in HEK293 cells; format: cell-based; settings: labeled AR and BCL6
T1 construct: HaloTag; NanoLuc; expressed in transfected cells; host or cells: HEK293
T1 sequence (P10275 whole entry, other chains not shown): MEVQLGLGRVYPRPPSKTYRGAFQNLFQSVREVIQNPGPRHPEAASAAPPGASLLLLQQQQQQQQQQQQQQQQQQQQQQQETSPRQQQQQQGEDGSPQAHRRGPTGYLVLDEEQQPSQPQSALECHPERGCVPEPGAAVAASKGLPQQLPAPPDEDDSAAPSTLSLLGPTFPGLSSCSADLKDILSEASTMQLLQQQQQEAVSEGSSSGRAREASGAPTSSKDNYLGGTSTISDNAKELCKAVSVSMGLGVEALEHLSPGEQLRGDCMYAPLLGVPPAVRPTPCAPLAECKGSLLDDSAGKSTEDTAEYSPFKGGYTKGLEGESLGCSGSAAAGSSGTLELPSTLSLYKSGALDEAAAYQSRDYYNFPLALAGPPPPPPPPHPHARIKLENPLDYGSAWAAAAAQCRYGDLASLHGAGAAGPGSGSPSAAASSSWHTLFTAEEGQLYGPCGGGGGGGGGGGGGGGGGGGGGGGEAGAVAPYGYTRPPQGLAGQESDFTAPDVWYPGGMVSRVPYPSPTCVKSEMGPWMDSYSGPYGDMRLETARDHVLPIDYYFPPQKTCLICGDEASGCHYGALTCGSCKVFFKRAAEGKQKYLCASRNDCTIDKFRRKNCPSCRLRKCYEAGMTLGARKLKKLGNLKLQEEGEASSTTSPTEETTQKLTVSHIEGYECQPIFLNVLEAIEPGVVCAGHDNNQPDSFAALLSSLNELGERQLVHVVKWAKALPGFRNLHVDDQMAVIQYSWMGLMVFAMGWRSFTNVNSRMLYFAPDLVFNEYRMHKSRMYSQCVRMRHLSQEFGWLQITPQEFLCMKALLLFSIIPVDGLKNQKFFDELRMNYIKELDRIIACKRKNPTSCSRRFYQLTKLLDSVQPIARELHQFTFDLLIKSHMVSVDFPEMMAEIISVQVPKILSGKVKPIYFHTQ
Excerpt: To ascertain activity of TCIP RCS-02-063 as schematically illustrated in FIG. 1, w a BRET assay was developed to detect in vivo target engagement and ternary complex formation. FIG. 25 (Panels A-B) provides an illustration of the assay as wells the results obtained therefrom. […] A BRET signal at 618 nm was then detected after excitation at 460 nm of HEK293 cells infected with the labeled fusion proteins.

[3] = test system: MYC, FOXO3, p21, BCL6, BRD4 protein levels in KARPAS422 and SUDHL5; experiment: Western blots of target proteins in DLBCL cells; format: cell-based, human; settings: titrated against constant 10 nM TCIP1, 8 hours
Method: Cells were plated at 1 M/mL and treated with drug at indicated timepoints and doses. 2 M Cells were harvested on ice in RIPA buffer (50 mM Tris-HCl pH 8, 150 mM NaCl, 1% NP-40, 0.1% DOC, 1% SDS, protease inhibitor cocktail (homemade), 1 mM DTT) and 1:200 benzonase (Sigma #E1014) was added and incubated for 20 minutes. After 10 minute centrifugation at 14,000 g and 4° C., the supernatant was collected and protein concentration was measured by Bradford.
Because a high percentage of the TCIP1-treated cells contain fragmented DNA by TUNEL assay at 24 hours (FIG. 31, Panel E), many of the “reduced genes” could reflect DNA fragmentation as part of the apoptotic process and digestion to mononucleosomes. Among the group of genes whose expression was most reduced were MYC and its targets (FIGS. 33B, 36C). The top 100 most TCIP1-reduced genes were examined using ChIP-seq data of human transcription factors in blood cancer cell lines, and found the promoters of TCIP1-inhibited genes highly enriched for MYC binding in multiple datasets (FIG. 33, Panel C). This is significant since many DLBCLs are considered to be MYC-dependent.
Signaling via NF-kB is known to be repressed by BCL6.

[4] = test system: DLBCL cell lines; experiment: Chemical rescue: competitive titration of JQ1 or Bl3812 against the TCIP; format: cell-based; settings: titrated against constant JWZ-7-7 / TCIP1
[5] = test system: SUDHL5; experiment: Killing of lymphoma cell lines by CDK9-BCL6 TCIPs, death recorded 72 hours later; format: cell-based, human
Method: FIG. 15 CDK9-BCL6 TCIPs Effectively Kill Human Lymphomas. The molecules shown in FIG. 14 were used at the indicated concentrations to treat different lymphoma cell lines, such as SUDHL5 shown here. Death was recorded 72 hours later.

[6] = test system: DMS-79; experiment: Dose response on viability of small cell lung cancer line, resazurin assay; format: cell-based; settings: DMS-79, 72 h treatment
Method: (§1) IC50 of JWZ-7-7, BI-3812, JQ1, and combinations were calculated based on a dose response curve on three small cell lung cancer lines (FIG. 5). The dose response curve on viability was performed in technical replicates and biological triplicate after treating cells for 72 hours across a broad range of concentrations via serial dilutions. Viable cells were measured after treatment via a resazurin assay. The signal for viable assays was normalized to the DMSO treated negative control. A four-parameter non-linear fit was performed to fit a curve to calculate the IC50 for each of the cell lines. The table below describes the calculated IC50 across JWZ-7-7, JQ1, BI-3812 and combination of JQ1 and BI-3812 after 72 h treatment in technical replicates and biological triplicates.

[7] = test system: NCI-H1105; experiment: as above; format: cell-based; settings: NCI-H1105, 72 h treatment
Method: as §1

[8] = test system: NCI-H2196; experiment: as above; format: cell-based; settings: NCI-H2196, 72 h treatment
Method: as §1

[9] = test system: MYC, FOXO3, p21, BCL6, BRD4 protein levels in KARPAS422 and SUDHL5; settings: known for BET/BRD4 inhibitors; cited from earlier work
[10] = biological target: T2, CDK9 and BCL6 (Homo sapiens, UniProt P41182+P50750); experiment: Competition of TCIP-induced cell death with BCL6 inhibitor; format: cell-based; settings: cell death recorded 72 hours after adding
T2 construct: endogenous in cells

SMILES: CNC(=O)COc1cc2cc(Nc3nc(N4CCC(C(=O)NCCCNC(=O)CO/N=C5\CC[C@H]6[C@@H]7CC[C@H]8CC(=O)CC[C@]8(C)[C@H]7CC[C@]56C)CC4)ncc3Cl)cc(OC)c2n(C)c1=O [RCS-02-063]
- IC50 [1]: ~1 µM
- IC50 ([1]; Homo sapiens, 72 h): ~1.5 µM
- BRET signal (target engagement) [2]: robust BRET signal

SMILES: CNC(=O)COc1cc2cc(Nc3nc(N4CCC(C(=O)N(C)C)CC4)ncc3Cl)cc(OC)c2n(C)c1=O [Bl3812]
- Reversal of TCIP1-induced protein changes [3]: reversed p21 upregulation, FOXO3 upregulation, and MYC downregulation
- Rescue of TCIP-induced cell death [4]: rescue cell death; also recorded: prevented death by TCIP1

SMILES: CNC(=O)COc1cc2cc(Nc3nc(N4CCC(C(=O)NCCCCCCC(=O)N5CCC(C(=O)Nc6ncc(SCc7ncc(C(C)(C)C)o7)s6)CC5)CC4)ncc3Cl)cc(OC)c2n(C)c1=O [BAK_04_21]
- Killing of lymphoma cells relative to component and competitor molecules [5]: more effective at killing lymphoma cells than component molecules and competitor molecules

SMILES: Cc1sc2c(c1C)C(c1ccc(Cl)cc1)=N[C@@H](CC(=O)OC(C)(C)C)c1nnc(C)n1-2 [JQ1]
- IC50 [6]: 10.1 µM
- IC50 [7]: Unstable
- IC50 [8]: 14.4 µM
- Rescue of TCIP-induced cell death [4]: rescue cell death; also recorded: prevented death by TCIP1
- Drug level that reduces expression of MYC [9]: 500 nM

SMILES: CNC(=O)COc1cc2cc(Nc3nc(N4CCC(C(=O)NCCCCCCC(=O)N5CCC(C(=O)Nc6ncc(SCc7ncc(C(C)(C)C)o7)s6)CC5)CC4)ncc3Cl)cc(OC)c2n(C)c1=O [BAK04-21]
- Ternary complex in cells, competition with Bl3812 [10]: forms a ternary complex in cells that can be competed with the BCL6 inhibitor
